Patent US7311743B2, “Biofiltration apparatus and method for reducing methyl bromide concentration in a volume of gas” (Energy Resource Institute, Inc., priority 2004, dated 2007)

Assays:
[1] = system: methyl bromide-degrading bacteria; assay: Methyl bromide removal in the biotrickling filter
Source text: A biotrickling filter was constructed as schematically represented in FIG. 2. The apparatus included three packed bed sections filled with lava rock, perlite or polyurethane as packing materials. Other equipment included an air supply, a methyl bromide supply, recycle liquid circulation, a nutrient supply (as a complete mineral medium), and a pH control by automatic addition of NaOH. The biotrickling filter was usually operated at standard conditions as specified in Table 1.
Cultures of methyl bromide-degrading bacteria were obtained by inoculating or exposing the substrate component of the apparatus with a variety of natural sources or materials, such as soil and sediment. A continuous supply of a low concentration (about 0 to about 10 g/m^3) of methyl bromide was supplied to the apparatus. The first signs of methyl bromide removal were observed after about 6-12 days of operation of the apparatus. The methyl bromide elimination capacity seemed to reach a maximum value after about 35-40 days of operation. During operation, the pH in the recycle liquid declined, small amounts of bromide were produced in the recycle liquid, and the CO2 concentration in the outlet air increased.
The fate of methyl bromide in the biotrickling filter was determined by comparing the rate of methyl bromide removal with the rates of CO2 production, bromide ion production and NaOH consumption as expected from the biodegradation reaction stoichiometry. Biodegradation of methyl bromide and pH control occur according to the following reactions 2CH3Br+3O2→2HBr+2 CO2+2H2O Equation 3 HBr+NaOH→NaBr+H2O Equation 4
The effect of the liquid recycle or trickling rate was examined at the lower and higher end of the range of recycle rates commonly employed in biotrickling filters. Methyl bromide removal was the same at a trickling rates of 2.55 and 22.2 L/h, corresponding to superficial liquid velocities of 2.0 and 17.7 m/h, respectively (Table 2).
The maximum elimination capacity of methyl bromide in the biotrickling filter was determined by stepwise increasing the methyl bromide concentration. Depending on the inlet concentration, the following phases can be distinguished: […]

[2] = Air/organic phase partition coefficient of methyl bromide; format: physicochemical; conditions: gas over liquid concentration
Procedure: If necessary, the air/organic phase partition coefficients of methyl bromide in these and other potential organic liquids may be determined by adding a known amount of an organic liquid and methyl bromide to a 250 mL flask with TEFLON-lined silicon septa. A gas headspace may be analyzed for methyl bromide by gas chromatography, and the partition of methyl bromide may be calculated. In certain embodiments, corn oil may be preferred since the air/corn oil partition coefficient for methyl bromide is 0.02, i.e., about ten times lower than with water. Based on calculations, a Henry coefficient of 0.005 may be ideal for load dampening. The organic phase should meet various requirements, such as a low vapor pressure, low toxicity, non-miscibility with water, and being non-biodegradable. Additional examples of liquids may include di-n-octylphtalate, di-n-nonylphtalate, polydimethylsiloxane, and silicone oil. Methyl bromide concentrations in the inlet and outlet air may be determined (continuously or semi-continuously) with a photoionization detector (PID) analyzer, for example. […] Potential carry over of aerosol to the outlet stream may be determined to evaluate whether a demister might be beneficial. For either the GAC or liquid absorption system, the results may be analyzed with mathematical model (see FIG. 19).

Compound	NaBr concentration in the recycle liquid at which inhibition of methyl bromide removal was observed ([1]; recycle liquid (48 g/L)) [M]	Removal efficiency ([1]; gas flow cocurrent, EBRT = 94 s, inlet 3.042 g/m^3) [%]	Removal efficiency ([1]; gas flow countercurrent (standard operation), EBRT = 94 s, inlet 3.713 g/m^3) [%]	Concentration at which a reduction of the elimination capacity (toxic effect on microorganisms) was observed ([1]; inlet air concentration (3300 ppm))	Removal efficiency ([1]; low inlet concentrations increasing up to 3 g/m^3)	Removal efficiency ([1]; superficial liquid velocity 2.0 m/h (standard operation), EBRT = 94 s, inlet 2.927 g/m^3) [%]	Removal efficiency ([1]; superficial liquid velocity 17.7 m/h, EBRT = 94 s, inlet 2.927 g/m^3) [%]	Air/corn oil partition coefficient [2]
[Br-].[Na+] [NaBr, sodium bromide]	≥ 0.47							
CBr [Methyl bromide]		63	70	greater than 13 g/m^3	greater than 96%	89	91	0.02
